Several values for one entry are separate records, joined by “and”; a condition that tells them apart may be missing. Identical values can stand only once. Marks after values point to notes of the source that are not given here.
Tested on: male rats
Assay: 28-day repeated dose study, plasma metabolite profiling (GC-MS, LC-MS), male rats
Assay type: in vivo, rat
From the text: Drinking water was also offered ad libitum.

Compound: CC(C=O)Cc1ccc(C(C)(C)C)cc1 (centres unmarked) [Lysmeral, 2-Methyl-3(4-tert.-butylphenyl)-propanal]
- 3-Hydroxybutyrate, plasma, treatment ratio versus control (day 7): 0.24* and 0.21*
- 3-O-Methylsphingosine (d18:1), plasma, treatment ratio versus control (day 7): 0.22
- 5-O-Methylsphingosine (d18:1), plasma, treatment ratio versus control (day 7): 0.19
- 5-Oxoproline, plasma, treatment ratio versus control (day 7): 0.65*
- Arginine, plasma, treatment ratio versus control (day 7): 1.37*
- Campesterol, plasma, treatment ratio versus control (day 7): 0.24*
- Ceramide (d18:1,C24:0), plasma, treatment ratio versus control (day 7): 0.59*
- Ceramide (d18:1,C24:1), plasma, treatment ratio versus control (day 7): 0.47*
- Cholesterol, plasma, treatment ratio versus control (day 7): 0.3
- Choline plasmalogen No 03, plasma, treatment ratio versus control (day 7): 0.51*
- Coenzyme Q9, plasma, treatment ratio versus control (day 7): 0.21*
- Coenzyme Q10, plasma, treatment ratio versus control (day 7): 0.33*
- Glutamate, plasma, treatment ratio versus control (day 7): 0.72
- Glutamine, plasma, treatment ratio versus control (day 7): 0.65*
- Histidine, plasma, treatment ratio versus control (day 7): 1.21*
- Homovanillic acid (HVA), plasma, treatment ratio versus control (day 7): 0.21*
- Isopalmitic acid (C16:0), plasma, treatment ratio versus control (day 7): 0.46*
- Lignoceric acid (C24:0), plasma, treatment ratio versus control (day 7): 0.36
- Linoleic acid (C18:cis[9,12]2), plasma, treatment ratio versus control (day 7): 0.44*
- Lysine, plasma, treatment ratio versus control (day 7): 6.14*
- Myristic acid (C14:0), plasma, treatment ratio versus control (day 7): 0.54
- Oleic acid (C18:cis[9]1), plasma, treatment ratio versus control (day 7): 0.87
- Palmitic acid (C16:0), plasma, treatment ratio versus control (day 7): 0.42*
- Palmitoleic acid (C16:cis[9]1), plasma, treatment ratio versus control (day 7): 0.66
- Phosphatidylcholine (C16:0,C18:2), plasma, treatment ratio versus control (day 7): 0.89*
- Phosphatidylcholine (C18:1,C18:2), plasma, treatment ratio versus control (day 7): 0.74*
- Serine, plasma, treatment ratio versus control (day 7): 1.36*
- Sphingomyelin (d18:1,C16:0), plasma, treatment ratio versus control (day 7): 0.84*
- Sphingomyelin (d18:1,C24:0), plasma, treatment ratio versus control (day 7): 0.52*
- Sphingomyelin (d18:2,C16:0), plasma, treatment ratio versus control (day 7): 0.58*
- Stearic acid (C18:0), plasma, treatment ratio versus control (day 7): 0.34*
- TAG (C16:0,C16:1), plasma, treatment ratio versus control (day 7): 0.47
- Threonine, plasma, treatment ratio versus control (day 7): 1.46*
- alpha-Tocopherol, plasma, treatment ratio versus control (day 7): 0.52*
- beta-Sitosterol, plasma, treatment ratio versus control (day 7): 0.43*
- erythro-Sphingosine, plasma, treatment ratio versus control (day 7): 0.21
- threo-Sphingosine, plasma, treatment ratio versus control (day 7): 0.25
- Lysophosphatidylcholine (C20:4), plasma, treatment ratio versus control (day 7, first listing in Table 3): 0.87*
- Lysophosphatidylcholine (C20:4), plasma, treatment ratio versus control (day 7, second listing in Table 3): 0.67*
- 3-Hydroxybutyrate, plasma, treatment ratio versus control (day 14): 0.29* and 0.2*
- 3-O-Methylsphingosine (d18:1), plasma, treatment ratio versus control (day 14): 0.45*
- 5-O-Methylsphingosine (d18:1), plasma, treatment ratio versus control (day 14): 0.48*
- Arginine, plasma, treatment ratio versus control (day 14): 1.59*
- Campesterol, plasma, treatment ratio versus control (day 14): 0.43*
- Ceramide (d18:1,C24:0), plasma, treatment ratio versus control (day 14): 0.59*
- Ceramide (d18:1,C24:1), plasma, treatment ratio versus control (day 14): 0.38*
- Cholesterol, plasma, treatment ratio versus control (day 14): 0.47*
- Choline plasmalogen No 03, plasma, treatment ratio versus control (day 14): 0.66*
- Coenzyme Q9, plasma, treatment ratio versus control (day 14): 0.27*
- Coenzyme Q10, plasma, treatment ratio versus control (day 14): 0.24*
- Dodecanol, plasma, treatment ratio versus control (day 14): 0.75*
- Glutamate, plasma, treatment ratio versus control (day 14): 0.93
- Glutamine, plasma, treatment ratio versus control (day 14): 0.8
- Histidine, plasma, treatment ratio versus control (day 14): 1.37*
- Homovanillic acid (HVA), plasma, treatment ratio versus control (day 14): 0.47*
- Isopalmitic acid (C16:0), plasma, treatment ratio versus control (day 14): 0.49*
- Lignoceric acid (C24:0), plasma, treatment ratio versus control (day 14): 0.52*
- Linoleic acid (C18:cis[9,12]2), plasma, treatment ratio versus control (day 14): 0.57*
- Lysine, plasma, treatment ratio versus control (day 14): 6.55*
- Myristic acid (C14:0), plasma, treatment ratio versus control (day 14): 0.59*
- Oleic acid (C18:cis[9]1), plasma, treatment ratio versus control (day 14): 1.01
- Palmitic acid (C16:0), plasma, treatment ratio versus control (day 14): 0.56*
- Palmitoleic acid (C16:cis[9]1), plasma, treatment ratio versus control (day 14): 0.55*
- Phosphatidylcholine (C16:0,C18:2), plasma, treatment ratio versus control (day 14): 0.93*
- Phosphatidylcholine (C18:1,C18:2), plasma, treatment ratio versus control (day 14): 0.79*
- Serine, plasma, treatment ratio versus control (day 14): 1.54*
- Sphingomyelin (d18:1,C16:0), plasma, treatment ratio versus control (day 14): 0.88*
- Sphingomyelin (d18:1,C24:0), plasma, treatment ratio versus control (day 14): 0.62*
- Sphingomyelin (d18:2,C16:0), plasma, treatment ratio versus control (day 14): 0.53*
- Stearic acid (C18:0), plasma, treatment ratio versus control (day 14): 0.51*
- TAG (C16:0,C16:1), plasma, treatment ratio versus control (day 14): 0.67*
- Threonine, plasma, treatment ratio versus control (day 14): 1.74*
- alpha-Tocopherol, plasma, treatment ratio versus control (day 14): 0.56*
- beta-Sitosterol, plasma, treatment ratio versus control (day 14): 0.57*
- erythro-Sphingosine, plasma, treatment ratio versus control (day 14): 0.51*
- threo-Sphingosine, plasma, treatment ratio versus control (day 14): 0.5*
- Lysophosphatidylcholine (C20:4), plasma, treatment ratio versus control (day 14, first listing in Table 3): 0.95*
- Lysophosphatidylcholine (C20:4), plasma, treatment ratio versus control (day 14, second listing in Table 3): 0.61*
- 3-Hydroxybutyrate, plasma, treatment ratio versus control (day 28): 0.52* and 0.49*
- 3-O-Methylsphingosine (d18:1), plasma, treatment ratio versus control (day 28): 0.48*
- 5-O-Methylsphingosine (d18:1), plasma, treatment ratio versus control (day 28): 0.48*
- 5-Oxoproline, plasma, treatment ratio versus control (day 28): 0.74*
- Arginine, plasma, treatment ratio versus control (day 28): 1.76*
- Campesterol, plasma, treatment ratio versus control (day 28): 0.35*
- Ceramide (d18:1,C24:0), plasma, treatment ratio versus control (day 28): 0.44*
- Ceramide (d18:1,C24:1), plasma, treatment ratio versus control (day 28): 0.38*
- Cholesterol, plasma, treatment ratio versus control (day 28): 0.49*
- Choline plasmalogen No 03, plasma, treatment ratio versus control (day 28): 0.6*
- Coenzyme Q9, plasma, treatment ratio versus control (day 28): 0.31*
- Coenzyme Q10, plasma, treatment ratio versus control (day 28): 0.37*
- Glutamate, plasma, treatment ratio versus control (day 28): 0.82*
- Glutamine, plasma, treatment ratio versus control (day 28): 0.81*
- Histidine, plasma, treatment ratio versus control (day 28): 1.56*
- Homovanillic acid (HVA), plasma, treatment ratio versus control (day 28): 0.26*
- Isopalmitic acid (C16:0), plasma, treatment ratio versus control (day 28): 0.34*
- Lignoceric acid (C24:0), plasma, treatment ratio versus control (day 28): 0.6*
- Linoleic acid (C18:cis[9,12]2), plasma, treatment ratio versus control (day 28): 0.38*
- Lysine, plasma, treatment ratio versus control (day 28): 8.13*
- Myristic acid (C14:0), plasma, treatment ratio versus control (day 28): 0.53*
- Oleic acid (C18:cis[9]1), plasma, treatment ratio versus control (day 28): 0.81*
- Palmitic acid (C16:0), plasma, treatment ratio versus control (day 28): 0.48*
- Palmitoleic acid (C16:cis[9]1), plasma, treatment ratio versus control (day 28): 0.37*
- Phosphatidylcholine (C16:0,C18:2), plasma, treatment ratio versus control (day 28): 0.92*
- Phosphatidylcholine (C18:1,C18:2), plasma, treatment ratio versus control (day 28): 0.83*
- Serine, plasma, treatment ratio versus control (day 28): 1.7*
- Sphingomyelin (d18:1,C16:0), plasma, treatment ratio versus control (day 28): 0.79*
- Sphingomyelin (d18:1,C24:0), plasma, treatment ratio versus control (day 28): 0.64*
- Sphingomyelin (d18:2,C16:0), plasma, treatment ratio versus control (day 28): 0.55*
- Stearic acid (C18:0), plasma, treatment ratio versus control (day 28): 0.55*
- TAG (C16:0,C16:1), plasma, treatment ratio versus control (day 28): 0.66*
- Threonine, plasma, treatment ratio versus control (day 28): 2.15*
- beta-Sitosterol, plasma, treatment ratio versus control (day 28): 0.55*
- erythro-Sphingosine, plasma, treatment ratio versus control (day 28): 0.51*
- threo-Sphingosine, plasma, treatment ratio versus control (day 28): 0.51*
- Lysophosphatidylcholine (C20:4), plasma, treatment ratio versus control (day 28, first listing in Table 3): 0.94*
- Lysophosphatidylcholine (C20:4), plasma, treatment ratio versus control (day 28, second listing in Table 3): 0.5*

Compound: COCCO [2-Methoxyethanol]
- 3-Hydroxybutyrate, plasma, treatment ratio versus control (day 7): 0.45*
- 3-O-Methylsphingosine (d18:1), plasma, treatment ratio versus control (day 7): 0.53*
- 5-Oxoproline, plasma, treatment ratio versus control (day 7): 0.76*
- Campesterol, plasma, treatment ratio versus control (day 7): 0.58*
- Ceramide (d18:1,C24:0), plasma, treatment ratio versus control (day 7): 0.75*
- Ceramide (d18:1,C24:1), plasma, treatment ratio versus control (day 7): 0.82
- Cholesterol, plasma, treatment ratio versus control (day 7): 0.58*
- Coenzyme Q9, plasma, treatment ratio versus control (day 7): 0.57*
- Coenzyme Q10, plasma, treatment ratio versus control (day 7): 0.7*
- Dodecanol, plasma, treatment ratio versus control (day 7): 0.8
- Glutamine, plasma, treatment ratio versus control (day 7): 0.68*
- Histidine, plasma, treatment ratio versus control (day 7): 1.13
- Isopalmitic acid (C16:0), plasma, treatment ratio versus control (day 7): 1.03
- Lignoceric acid (C24:0), plasma, treatment ratio versus control (day 7): 0.61*
- Linoleic acid (C18:cis[9,12]2), plasma, treatment ratio versus control (day 7): 1.07
- Lysine, plasma, treatment ratio versus control (day 7): 1.22*
- Myristic acid (C14:0), plasma, treatment ratio versus control (day 7): 0.87
- Palmitic acid (C16:0), plasma, treatment ratio versus control (day 7): 0.92
- Palmitoleic acid (C16:cis[9]1), plasma, treatment ratio versus control (day 7): 0.71*
- Sphingomyelin (d18:1,C16:0), plasma, treatment ratio versus control (day 7): 0.84*
- Sphingomyelin (d18:1,C24:0), plasma, treatment ratio versus control (day 7): 0.68*
- Stearic acid (C18:0), plasma, treatment ratio versus control (day 7): 0.8*
- Threonine, plasma, treatment ratio versus control (day 7): 1.72*
- alpha-Tocopherol, plasma, treatment ratio versus control (day 7): 0.78
- erythro-Sphingosine, plasma, treatment ratio versus control (day 7): 0.57*
- 3-Hydroxybutyrate, plasma, treatment ratio versus control (day 14): 0.24*
- 3-O-Methylsphingosine (d18:1), plasma, treatment ratio versus control (day 14): 0.67*
- 5-Oxoproline, plasma, treatment ratio versus control (day 14): 0.67*
- Ceramide (d18:1,C24:0), plasma, treatment ratio versus control (day 14): 0.7*
- Ceramide (d18:1,C24:1), plasma, treatment ratio versus control (day 14): 0.62*
- Cholesterol, plasma, treatment ratio versus control (day 14): 0.61*
- Coenzyme Q9, plasma, treatment ratio versus control (day 14): 0.58*
- Coenzyme Q10, plasma, treatment ratio versus control (day 14): 0.49*
- Dodecanol, plasma, treatment ratio versus control (day 14): 0.77*
- Glutamine, plasma, treatment ratio versus control (day 14): 0.71
- Histidine, plasma, treatment ratio versus control (day 14): 1.4*
- Isopalmitic acid (C16:0), plasma, treatment ratio versus control (day 14): 0.43*
- Lignoceric acid (C24:0), plasma, treatment ratio versus control (day 14): 0.46*
- Linoleic acid (C18:cis[9,12]2), plasma, treatment ratio versus control (day 14): 0.77*
- Myristic acid (C14:0), plasma, treatment ratio versus control (day 14): 0.57*
- Palmitic acid (C16:0), plasma, treatment ratio versus control (day 14): 0.75*
- Palmitoleic acid (C16:cis[9]1), plasma, treatment ratio versus control (day 14): 0.39*
- Sphingomyelin (d18:1,C16:0), plasma, treatment ratio versus control (day 14): 0.88*
- Sphingomyelin (d18:1,C24:0), plasma, treatment ratio versus control (day 14): 0.56*
- Stearic acid (C18:0), plasma, treatment ratio versus control (day 14): 0.84*
- Threonine, plasma, treatment ratio versus control (day 14): 2.93*
- alpha-Tocopherol, plasma, treatment ratio versus control (day 14): 0.76*
- erythro-Sphingosine, plasma, treatment ratio versus control (day 14): 0.67*

Source: US20140342379A1, “Means and Methods for Assessing Gonadal Toxicity” (BASF SE, priority 2011, published 2014)
